{"source": "patent US20210393726A1", "about": "“USE OF EXTRACT OF VEGETATION WATERS IN THE REGENERATION OF EPITHELIAL TISSUE” (FATTORIA LA VIALLAD DI GIANNI, ANTONIO E BANDINO LO FRANCO …, priority 2017, published 2021)", "origin": "cited, not measured here", "conditions": "high concentrations, up to 250-500 mg/kg/day"}
{"compound": "OCCc1ccc(O)c(O)c1", "note": "[Hydroxytyrosol, hydroxytyrosol]", "values": [{"measurement": "toxic effect on in vivo administration", "value": "does not have any toxic effect"}]}
